Measured values taken from patent publication US20090149395A1, “NOVEL MACROCYCLIC POLYENE LACTAMS” (priority 2007, published 2009).
In brackets after ≈: the same amount, converted by molar mass. Read-outs that look alike come from different tables or passages of the source.

How the values were obtained:
human red blood cells = format: cell-based
Method: The effect of NOVO4 on the hemolysis of human red blood cells was also tested. A total of 10 ml of expired packed red blood cells from the blood bank was gently added to 80 ml of PBS (Phosphate buffered saline), and pelleted at 1000 g for 5 minutes at 4° C. The upper phase and buffy layer (white blood cells) were removed. The cells are repeatedly washed by gentle mixing with PBS, and centrifugation until the upper phase is clear. In the last wash, 40 ml of 1×PBS with 0.05% BSA was added to half of the red blood cells while 40 ml of 1×PBS without BSA was added to the other half. The upper phase of the last wash was removed to leave a total volume of about 10 ml. The concentration of the red blood cells was measured by using the spectrophometer at 600 nm. An aliquot of the cells are diluted to a final density OD600 of 24 in 1×PBS, and another to a final density OD600 of 24 in 1×PBS with 0.05% BSA.
The compound NOVO4 is two-fold serially diluted (similar to that described above for mammalian NIH3T3 cytotoxicity assay) as 100× concentration in DMSO, ranging from 0.4 μg/ml to 400 μg/ml. […] After thorough mixing, the A450 was read using a Spectramax Plus Spectrophotometer, using wells with only 1×PBS as blanks. […]

MSSA (ATCC 13709) = assay: MIC broth dilution; format: cell-based, Staphylococcus aureus
bacterial cells = assay: Solid agar growth inhibition zone assay; format: cell-based; conditions: MHB agar, 5 μl spot, 16 hr to 24 hr incubation; strain not named
Method: This can be achieved in different assay format; bacteria growing on solid agar media or bacteria growing in broth such as for Example 5 and 6 (Minimal Inhibition Concentration).
For solid agar format, bacterial cells are first grown in a suitable media such as Mueller Hinton broth (MHB) until exponential phase (OD600<1.0). The cells are diluted back to OD600=0.02 in MHB, and evenly applied as a thin layer on the surface of a plate of solid growth media, such as MHB agar (about 0.1 ml onto a surface area of 100 cm^2). After the surface is dried, a 5 μl aliquot of a 2-fold serial dilution of NOVO4 (in 50% DMSO) is spotted onto the surface of the agar plate. After 16 hr to 24 hr of incubation, depending on the bacterial strain of interest, the diameter of zones of growth inhibition is measured.

[1] = system: NIH3T3 mouse embryonic fibroblasts; assay: Mammalian cytotoxicity assay (CellTiter 96 AQueous One); format: cell-based; conditions: NIH3T3 cells, 24 hr, highest tested 16 μg/ml
Method: Mammalian cytotoxicity assays were performed using NIH3T3 mouse embryonic fibroblasts (ATCC CRL-1658), and cytotoxicity was measured using the CellTiter 96® AQueous One Solution Cell Proliferation Assay (Promega, Madison, Wis., Cat: G3582), according to the manufacturer's recommendations.
100× working stocks of 2-fold serial dilution of NOVO4 in DMSO were created in a 96 well format. The highest concentration of the 100× concentration (working stock) was prepared by adding […] of the stock solution of NOVO4 (10 mg/ml in DMSO) for every 0.68 μl of DMSO to well A02. 0.5 μl of this 100× stock was added for every 0.5 μl of DMSO in well A03 to create a total of 7 two-fold serial dilution series, from 1600 μg/ml to 25 μg/ml (from highest in well A02 to A08,). A DMSO control was also included (wells in column A01, and A12). […]
The plate was visually inspected under a dissecting microscope, and the absorbance at 490 nm was read using a Spectramax Plus Spectrophotometer, with wells A12, and B12 reserved as blanks. The signal of compound alone (well A11) was verified not to contribute to the absorbance at this wavelength. Next, 20 μl of the CellTiter 96® AQueous One Solution Cell Proliferation Assay (Promega, Madison, Wis., Cat: G3582) was added to each well, and the plate was read after 3 hr of incubation. […]

E. faecalis (VRE BM4147) = assay: MIC broth dilution; format: cell-based; conditions: Enterococcus faecalis
B. subtilis 1A1 = assay: MIC broth dilution; format: cell-based; conditions: Bacillus subtilis, 1A1, B. subtilis 1A1
E. faecium E4So1 = assay: MIC broth dilution; format: cell-based; conditions: Enterococcus faecium
S. pneumoniae BAA225 = assay: MIC broth dilution; format: cell-based; conditions: Streptococcus pneumoniae
MRSA NRS108 = assay: MIC broth dilution; format: cell-based, Methicillin-resistant Staphylococcus aureus; conditions: Staphylococcus aureus
E. faecium MG1953 = assay: MIC broth dilution; format: cell-based; conditions: Enterococcus faecium
E. faecium (VRE JM89) = assay: MIC broth dilution; format: cell-based; conditions: Enterococcus faecium
B. anthracis sterne = assay: microbe, parasite or virus in culture; format: cell-based; conditions: Bacillus anthracis
MRSA NRS1 = assay: MIC broth dilution; format: cell-based, Methicillin-resistant Staphylococcus aureus; conditions: Staphylococcus aureus
MRSA and VRE = assay: Effect of serum on NOVO4 MIC; format: cell-based; conditions: MIC without serum compared to media with 10% calf bovine serum
Method: These studies follow the procedure for determining the MIC described above in Example 5. Briefly, two-fold serial dilution of the NOVO4 compound are added to the test cells of interest, MRSA and VRE, and the lowest concentration of compound that inhibits growth after a period of incubation is considered to be the MIC. To determine the effect of serum on the activity of NOVO4, MIC in the absence of serum is compared to MIC in media supplemented with 10% calf bovine serum (ATCC 30-2030).

Q: Which “A450 (hemoglobin released)” value (human red blood cells) does the source give for Triton X100 here?
A: Its value is 0.41.

Q: What about the “lysis of red blood cells” value (human red blood cells) of the same compound?
A: Its value is “complete lysis”.

Q: Which MIC (MSSA (ATCC 13709); MHB + 0.05% BSA) does the source give for `CC1\C=C/C=C\C=C/C=C\C=C/C(OC2OCC(O)C(O)C2N)C(C)(O)/C=C/C=C\C=C/C=C/C(=O)NC1` (stereo not shown) [NOVO4] here?
A: The MIC was 0.25 µg/mL.

Q: What about the MIC (MSSA (ATCC 13709); Staphylococcus aureus, MHB + 10% FCS) of the same compound?
A: The MIC was 0.25 to 0.5 µg/mL.

Q: And the MIC (MSSA (ATCC 13709); Staphylococcus aureus, MHB, read-out: MIC)?
A: Its MIC is 0.25 µg/mL (≈ 0.477 µM).

Q: And the “minimal concentration in which a 5 μL aliquot spotted onto a lawn of growing bacteria results in an observable zone of no growth” value (bacterial cells)?
A: The value was 0.67 µg/mL.

Q: And the LD50 [1]?
A: Its LD50 is greater than 16 µg/mL.

Q: And the MIC (E. faecalis (VRE BM4147); MHB)?
A: Its MIC is 2 to 4 µg/mL (≈ 3.81 to 7.62 µM).

Q: What about the MIC (E. faecalis (VRE BM4147); MHB + 0.05% BSA) of the same compound?
A: Its MIC is 1 to 2 µg/mL.

Q: And the MIC (E. faecalis (VRE BM4147); MHB + 10% FCS)?
A: The MIC was 2 µg/mL.

Q: What about the MIC (B. subtilis 1A1; MHB) of the same compound?
A: The MIC was 0.06 to 1 µg/mL (≈ 0.114 to 1.91 µM).

Q: And the MIC (B. subtilis 1A1; MHB + 0.05% BSA)?
A: Its MIC is 0.125 µg/mL.

Q: And the MIC (B. subtilis 1A1; MHB + 10% FCS)?
A: The MIC was 0.06 to 0.5 µg/mL.

Q: And the MIC (E. faecium E4So1; MHB)?
A: Its MIC is 2 µg/mL (≈ 3.81 µM).

Q: And the MIC (E. faecium E4So1; MHB + 0.05% BSA)?
A: The MIC was 1 µg/mL.

Q: What about the MIC (E. faecium E4So1; MHB + 10% FCS) of the same compound?
A: The MIC was 1 µg/mL.

Q: And the MIC (S. pneumoniae BAA225; MHB)?
A: The MIC was 1 to 2 µg/mL (≈ 1.91 to 3.81 µM).

Q: And the MIC (S. pneumoniae BAA225; MHB + 0.05% BSA)?
A: Its MIC is 1 to 2 µg/mL.

Q: What about the MIC (S. pneumoniae BAA225; MHB + 10% FCS) of the same compound?
A: Its MIC is 2 to 4 µg/mL.

Q: And the MIC (MRSA NRS108; MHB)?
A: Its MIC is 1 to 8 µg/mL (≈ 1.91 to 15.2 µM).

Q: And the MIC (MRSA NRS108; MHB + 0.05% BSA)?
A: Its MIC is 2 µg/mL.

Q: And the MIC (MRSA NRS108; MHB + 10% FCS)?
A: Its MIC is 0.5 to 2 µg/mL.

Q: And the MIC (E. faecium MG1953; MHB)?
A: Its MIC is 2 to 4 µg/mL (≈ 3.81 to 7.62 µM).

Q: What about the MIC (E. faecium MG1953; MHB + 0.05% BSA) of the same compound?
A: The MIC was 1 to 2 µg/mL.

Q: And the MIC (E. faecium MG1953; MHB + 10% FCS)?
A: Its MIC is 2 µg/mL.

Q: And the solubility (physchem; aqueous with cosolvent or surfactant or cyclodextrin)?
A: Its solubility is 300 µg/mL (≈ 572 µM).

Q: And the solubility (physchem; organic solvent or mixture)?
A: Its solubility is greater than 5000 µg/mL.

Q: What about the MIC (E. faecium (VRE JM89); MHB) of the same compound?
A: Its MIC is 4 µg/mL (≈ 7.62 µM).

Q: What about the MIC (E. faecium (VRE JM89); MHB + 0.05% BSA) of the same compound?
A: Its MIC is 2 µg/mL.

Q: And the MIC (E. faecium (VRE JM89); MHB + 10% FCS)?
A: Its MIC is 2 µg/mL.

Q: And the MIC (B. anthracis sterne; MHB)?
A: Its MIC is 0.25 to 0.5 µg/mL (≈ 0.477 to 0.953 µM).

Q: What about the MIC (B. anthracis sterne; MHB + 0.05% BSA) of the same compound?
A: The MIC was 0.125 to 0.5 µg/mL.

Q: And the MIC (B. anthracis sterne; MHB + 10% FCS)?
A: The MIC was 0.25 to 0.5 µg/mL.

Q: What about the MIC (MRSA NRS1; MHB) of the same compound?
A: Its MIC is 2 to 4 µg/mL (≈ 3.81 to 7.62 µM).

Q: And the MIC (MRSA NRS1; MHB + 0.05% BSA)?
A: The MIC was 0.5 µg/mL.

Q: What about the MIC (MRSA NRS1; MHB + 10% FCS) of the same compound?
A: The MIC was 1 µg/mL.

Q: What about the “effect of calf bovine serum on the MIC” value (MRSA and VRE) of the same compound?
A: Its value is “no significant effect”.
